Test results taken from patent US20110184004A1, “PREDICTIVE MARKER FOR EGFR INHIBITOR TREATMENT” (priority 2007, published 2011).
“Also recorded” adds a separate entry of the source.

Tests used:
[1] = patients with cancer, 150 mg/day dose; 500 ng/ml is the average plasma concentration targeted for clinical efficacy; cited from earlier work
advanced NSCLC = assay: Open-label Phase II predictive marker study of Tarceva monotherapy, response by RECIST; type: in vivo, human; conditions: 102 analysed patients, oral 150 mg/day
Experimental: Clinical benefit was defined as either having an objective response, or disease stabilization for ≧12 weeks.
Based on the experience from the BR.21 study, benefiting population was defined as either having objective response, or disease stabilization for 12 weeks. Clinical and microarray datasets were analyzed according to a pre-defined statistical plan.
Overview of Study Design and Dosing Regimen This was an open-label, predictive marker identification Phase II study. The study was conducted in approximately 26 sites in about 12 countries. 264 patients with advanced NSCLC following failure of at least one prior chemotherapy regimen were enrolled over a 12 month period. […] Dose reductions were permitted based on tolerability to drug therapy. Clinical and laboratory parameters were assessed to evaluate disease control and toxicity. Treatment continued until disease progression, unacceptable toxicity or death. The study design is depicted in FIG. 1.
The RECIST (Uni-dimensional Tumour Measurement) criteria were used to evaluate response. These criteria can be found under the following link: http://www.eortc.be/recist/
Note that: To be assigned a status of CR or PR, changes in tumour measurements must be confirmed by repeated assessments at least 4 weeks apart at any time during the treatment period.
In the case of SD, follow-up measurements must have met the SD criteria at least once after study entry at a minimum interval of 6 weeks.
In the case of maintained SD, follow-up measurements must have met the SD criteria at least once after study entry with maintenance duration of at least 12 weeks.
Based on these parameters, data from 20 arrays were excluded from analysis. Thus data from a total of 102 arrays representing 102 patients was included in the analysis.

epithelial tumours = conditions: cited from earlier work
NSCLC [2] = conditions: NSCLC patients for whom standard therapy for advanced disease has failed; single agent versus placebo; 150 mg/day; cited from earlier work
NSCLC [3] = conditions: second line therapy of NSCLC; cited from earlier work
NSCLC [4] = conditions: cited from earlier work
[5] = advanced NSCLC after failure of at least one chemotherapy, RECIST
[6] = clinical benefit = objective response or disease stabilization for ≧12 weeks

In the case of C#Cc1cccc(Nc2ncnc3cc(OCCOC)c(OCCOC)cc23)c1 [Tarceva, erlotinib], the “Drug levels in plasma” value [1] is listed as greater than 500 ng/mL, the “Best Response PD” value (advanced NSCLC; [5]) is listed as 49 (48.0%) n (%) and the “Best Response PR” value (advanced NSCLC; [5]) is listed as 6 (5.9%) n (%). For the same molecule, the “Best Response SD” value (advanced NSCLC; [5]) was 31 (30.4%) n (%), the “Clinical Benefit NO” value (advanced NSCLC; [6]) was 81 (79.4%) n (%) and the “Clinical Benefit YES” value (advanced NSCLC; [6]) was 21 (20.6%) n (%). For the same molecule, the Safety and tolerability (epithelial tumours; early clinical data, doses that provide the targeted effective concentration) was “safe and generally well tolerated”, the “Clinical activity (remissions)” value (epithelial tumours; previously treated patients with head and neck cancer and NSCLC) was “capable of inducing durable partial remissions” and the Survival (NSCLC [2]) was “significantly prolongs and improves the survival; also recorded: survival benefit”.

In the case of Nc1nc2[nH]cc(CCc3ccc(C(=O)N[C@@H](CCC(=O)O)C(=O)O)cc3)c2c(=O)[nH]1 [pemetrexed], the “Efficacy compared with docetaxel” value (NSCLC [3]) is given as “clinically equivalent efficacy” and the “Side effects compared with docetaxel” value (NSCLC [3]) is given as “significantly fewer side effects”.

In the case of CC(=O)O[C@@]12CO[C@@H]1C[C@H](O)[C@@]1(C)C(=O)[C@H](O)C3=C(C)[C@@H](OC(=O)[C@H](O)[C@@H](NC(=O)OC(C)(C)C)c4ccccc4)C[C@@](O)([C@@H](OC(=O)c4ccccc4)[C@H]21)C3(C)C [docetaxel], the “Survival, second line” value (NSCLC [4]; NSCLC after failure of cisplatin-based first-line regimens, all ages, ECOG performance status 0, 1 or 2, versus best supportive care) is given as “improved survival” and the “Survival, third-line treatment or beyond” value (NSCLC [4]; patients receiving docetaxel as third-line treatment or beyond) is given as “no prolongation of survival”.
